This passage reports Ki results from BindingDB's records for doi:10.1124/jpet.105.089839 (F. Hoffmann-La Roche, 2005).

Where “and” joins values, the source holds several entries; their conditions need not be identical. Identical values can stand only once.

In test [1] the target is Metabotropic glutamate receptor 5 (Rattus norvegicus, UniProt P31424).
In test [2] the target is Metabotropic glutamate receptor 5 (Homo sapiens, UniProt P41594).
Sequence of Metabotropic glutamate receptor 5 (Homo sapiens, UniProt P41594) (P41594 whole entry): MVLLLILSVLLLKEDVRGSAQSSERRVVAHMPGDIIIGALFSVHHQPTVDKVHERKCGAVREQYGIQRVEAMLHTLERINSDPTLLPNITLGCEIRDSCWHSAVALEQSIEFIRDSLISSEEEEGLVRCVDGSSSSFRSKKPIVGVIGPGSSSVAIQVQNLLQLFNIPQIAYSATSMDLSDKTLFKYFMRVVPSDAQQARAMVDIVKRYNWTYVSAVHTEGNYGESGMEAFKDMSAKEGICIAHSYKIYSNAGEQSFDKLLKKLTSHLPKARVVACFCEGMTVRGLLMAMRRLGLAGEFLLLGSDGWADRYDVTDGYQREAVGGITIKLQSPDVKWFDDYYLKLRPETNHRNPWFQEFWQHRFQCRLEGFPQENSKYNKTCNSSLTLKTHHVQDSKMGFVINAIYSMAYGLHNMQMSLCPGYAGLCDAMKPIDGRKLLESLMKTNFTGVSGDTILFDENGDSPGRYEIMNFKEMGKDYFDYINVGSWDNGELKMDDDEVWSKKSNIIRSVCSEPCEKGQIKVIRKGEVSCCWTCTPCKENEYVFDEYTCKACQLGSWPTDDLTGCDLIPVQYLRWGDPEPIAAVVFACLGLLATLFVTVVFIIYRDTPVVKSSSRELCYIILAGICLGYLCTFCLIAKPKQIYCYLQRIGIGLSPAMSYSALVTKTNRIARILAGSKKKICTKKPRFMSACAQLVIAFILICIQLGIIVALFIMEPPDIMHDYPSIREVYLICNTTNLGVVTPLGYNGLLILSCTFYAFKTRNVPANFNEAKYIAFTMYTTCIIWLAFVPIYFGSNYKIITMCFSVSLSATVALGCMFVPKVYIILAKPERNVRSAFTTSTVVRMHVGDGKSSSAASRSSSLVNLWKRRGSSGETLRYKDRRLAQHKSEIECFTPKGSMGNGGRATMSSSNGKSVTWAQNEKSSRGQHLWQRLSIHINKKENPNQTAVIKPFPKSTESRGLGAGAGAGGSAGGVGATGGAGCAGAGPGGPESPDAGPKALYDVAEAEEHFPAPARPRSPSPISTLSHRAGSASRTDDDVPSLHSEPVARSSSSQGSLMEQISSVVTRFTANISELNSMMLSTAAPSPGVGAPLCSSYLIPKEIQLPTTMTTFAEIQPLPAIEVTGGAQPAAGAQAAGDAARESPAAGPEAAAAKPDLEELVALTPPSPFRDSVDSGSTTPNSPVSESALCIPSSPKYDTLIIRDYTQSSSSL

Sequence of Metabotropic glutamate receptor 5 (Rattus norvegicus, UniProt P31424) (P31424 whole entry): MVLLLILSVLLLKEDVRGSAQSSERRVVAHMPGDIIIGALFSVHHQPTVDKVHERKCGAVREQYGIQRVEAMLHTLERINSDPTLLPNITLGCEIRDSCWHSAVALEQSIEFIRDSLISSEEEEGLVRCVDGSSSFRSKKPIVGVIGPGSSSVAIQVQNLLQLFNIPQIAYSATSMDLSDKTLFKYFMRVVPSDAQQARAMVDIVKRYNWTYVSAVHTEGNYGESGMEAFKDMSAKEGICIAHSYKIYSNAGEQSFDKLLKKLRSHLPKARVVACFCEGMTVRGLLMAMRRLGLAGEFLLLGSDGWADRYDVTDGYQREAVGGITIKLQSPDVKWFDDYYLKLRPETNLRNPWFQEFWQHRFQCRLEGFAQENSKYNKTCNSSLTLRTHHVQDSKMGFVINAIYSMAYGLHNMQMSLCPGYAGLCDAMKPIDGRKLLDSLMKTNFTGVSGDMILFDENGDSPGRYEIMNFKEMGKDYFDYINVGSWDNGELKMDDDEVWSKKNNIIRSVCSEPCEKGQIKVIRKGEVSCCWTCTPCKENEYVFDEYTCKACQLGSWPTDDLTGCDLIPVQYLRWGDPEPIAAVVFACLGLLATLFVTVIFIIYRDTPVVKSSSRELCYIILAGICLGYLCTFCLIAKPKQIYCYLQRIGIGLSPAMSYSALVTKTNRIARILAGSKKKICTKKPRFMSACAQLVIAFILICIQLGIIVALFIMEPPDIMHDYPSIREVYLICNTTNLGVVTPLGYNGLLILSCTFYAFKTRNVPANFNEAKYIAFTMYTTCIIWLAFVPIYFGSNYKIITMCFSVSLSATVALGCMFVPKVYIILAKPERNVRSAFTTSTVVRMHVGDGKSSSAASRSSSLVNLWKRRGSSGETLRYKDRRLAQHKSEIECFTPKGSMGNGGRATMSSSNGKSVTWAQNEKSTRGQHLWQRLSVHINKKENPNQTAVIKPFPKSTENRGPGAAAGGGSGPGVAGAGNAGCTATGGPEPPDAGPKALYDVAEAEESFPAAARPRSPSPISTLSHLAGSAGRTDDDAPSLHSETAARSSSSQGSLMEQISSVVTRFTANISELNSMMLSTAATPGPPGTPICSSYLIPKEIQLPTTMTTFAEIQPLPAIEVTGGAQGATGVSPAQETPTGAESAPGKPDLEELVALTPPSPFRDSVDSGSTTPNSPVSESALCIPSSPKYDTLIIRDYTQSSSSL

In the case of `Cc1ccc(O)c(N=Nc2ccccc2)n1` [CAS_5218788], the Ki in test [1] is 486 nM and 346 nM; in test [2], 357 nM and 328 nM and 1100 nM.
`Cc1cccc(C=Cc2ccccc2)n1` [CAS_5311432]: the Ki in test [1] was 423 nM and 243 nM; in test [2], 334 nM and 219 nM and 800 nM.
As to `N[C@@H](Cn1oc(=O)[nH]c1=O)C(=O)O` [NSC_40539], the Ki in test [1] and in test [2] was greater than 10000 nM in each case.
For `Cn1cc(O)nc1NC(=O)Nc1cccc(Cl)c1` [NSC_216215], the Ki was 56.3 nM and 50.8 nM in test [1]; 40.8 nM and 53 nM and 58 nM in test [2].
